Article PMC7930822, “Phase I Trial to Evaluate the Tolerance, Pharmacokinetics and Efficacy of the Broad-Spectrum ErbB Family Inhibitor Larotinib Mesylate in Patients With Advanced Solid Tumors” (Frontiers in Pharmacology, 2021)
Counter-ions that a name gives are not always drawn. Like-named read-outs stand apart in the source and are kept apart here.

Legend:
[1] = system: Sprague–Dawley rats; design: method as in data not published; details: ref data not published, cited from earlier work
[2] = molecular target: Bruton’s tyrosine kinase (BTK); design: method as in data not published; details: ref data not published; cited from earlier work
[3] = system: wild-type EGFR; design: method as in data not published; details: ref data not published, cited from earlier work
[4] = system: patients with advanced solid tumors; assay: tumor evaluation by RECIST version 1.1; assay type: in vivo, human; details: for Disease control, n (%): CR, PR and SD; for Objective response, n (%): complete plus partial response
Method: Tumor evaluation was performed at screening, the end of cycle 1, and every two cycles of subsequent treatment according to RECIST version 1.1. The disease control rate (DCR) (including CR, PR and SD), objective remission rate (ORR) (including CR and PR), and progression-free survival (PFS) were also evaluated.
Blood samples for EGFR mutation site analyses were collected in screening, cycle 1 day 29, cycle 3 days 29 and every 8 weeks for the subsequent follow-up. Second-generation sequencing method was used to detect the amplification and mutation of the related tumor genes.

[5] = system: tumor-bearing mice; design: method as in data not published; details: dose of 18 mg/kg, ref data not published; cited from earlier work
[6] = system: EGFR with a deletion in the exon 19; design: method as in data not published; details: ref data not published; cited from earlier work
[7] = system: P-glycoprotein; details: cited from earlier work
[8] = system: EGFR with the L861Q mutation; design: method as in data not published; details: ref data not published; cited from earlier work
[9] = molecular target: receptor-interacting serine/threonine-protein kinase 2 (RIPK2); design: method as in data not published; details: ref data not published; cited from earlier work
[10] = system: EGFR with the L858R mutation; design: method as in data not published; details: ref data not published; cited from earlier work
[11] = urine and fecal excretion recovery, cycle 0; assay type: in vivo; details: human, oral
Method: Blood samples (4 ml) for pharmacokinetic analyses were collected in tubes containing K2EDTA anticoagulant. Blood samples were centrifuged at 3,000 rpm for 10 min at 4°C and stored at –80°C until liquid chromatography-mass spectrophotometry (LC-MS/MS) analysis. Urine and fecal samples were collected only when patients were given the150-mg and 220-mg dose levels at sampling time intervals of 0–4, 4–8, 8–12, 12–24, 24–48, 48–72, 72–96 and 96–120 h in cycle 0.
Linear mixed effects model was used to explore the dose exposure relationships. Dose proportionality was concluded if the 95% confidence interval (CI) of the linear regression slope was completely contained within the decision interval (1 + ln (0.8)/ln (8)∼1 + ln (1.25)/ln (8)). For urine and fecal data, the accumulative excretion rates of larotinib and M5 were calculated.
Bioanalysis was performed at Frontage Company (Shanghai, China). Validated high-performance LC-MS/MS method was used to quantify the concentrations of larotinib and M5 in plasma, urine and feces samples. Protein precipitation was employed for plasma, urine and feces processing. Plasma larotinib and M5 concentrations were determined using appropriate calibration curves obtained from standards in the range of 0.5–1,000 ng/ml. The interassay precision of the analysis method were 4.2–5.4% for larotinib and 3.9–4.3% for M5. The interassay accuracy of the analysis method were 100.4–103.4% for larotinib and 102.2–102.9% for M5, respectively.

[12] = system: HER4; design: method as in data not published; details: ref data not published; cited from earlier work
[13] = system: wild-type EGFR; assay: in vitro kinase inhibition, wild-type EGFR; assay type: biochemical
Method: Larotinib mesylate (Figure 1) is a novel, potent broad-spectrum TKI with EGFR as the main target with a 50% inhibitory concentration (IC50) of 0.6 nM (data not published). […] We hypothesized that the characteristics of larotinib mesylate that facilitate simultaneous inhibition of multiple kinases may improve the tumor inhibiting effect of the drug and decrease the emergence of resistance to larotinib mesylate in solid tumor cells.

[14] = molecular target: B-lymphoid tyrosine kinase (BLK); design: method as in data not published; details: ref data not published; cited from earlier work

**Q.** Which “no observed adverse effect level (NOAEL)” value ([1]; daily administration) does the source give for `COc1cc2ncnc(Nc3ccc(F)c(Cl)c3)c2cc1OCCCN1C[C@@H]2OCCO[C@@H]2C1` [larotinib mesylate] here?
**A.** 10 mg/kg

**Q.** What about the “maximal tolerable dose (MTD)” value [1] of the same molecule?
**A.** 20 mg/kg

**Q.** And the IC50 [2]?
**A.** 0.196 µM

**Q.** What about the IC50 ([3]; EGFR as the main target) of the same molecule?
**A.** 0.0006 µM

**Q.** What about the IC50 ([3]; wild-type EGFR) of the same molecule?
**A.** 0.000611 µM

**Q.** What about the “Complete response, n (%)” value ([4]; 50 mg (n = 3)) of the same molecule?
**A.** 0 (0)

**Q.** What about the “Partial response, n (%)” value ([4]; 50 mg (n = 3)) of the same molecule?
**A.** 0 (0)

**Q.** And the “Progressive disease, n (%)” value ([4]; 50 mg (n = 3))?
**A.** 1 (33.3)

**Q.** What about the “Stable disease, n (%)” value ([4]; 50 mg (n = 3)) of the same molecule?
**A.** 2 (66.7)

**Q.** What about the “Disease control, n (%)” value ([4]; 50 mg (n = 3)) of the same molecule?
**A.** 2 (66.7)

**Q.** And the “Objective response, n (%)” value ([4]; 50 mg (n = 3))?
**A.** 0 (0)

**Q.** And the “Complete response, n (%)” value ([4]; 100 mg (n = 3))?
**A.** 0 (0)

**Q.** And the “Partial response, n (%)” value ([4]; 100 mg (n = 3))?
**A.** 0 (0)

**Q.** What about the “Progressive disease, n (%)” value ([4]; 100 mg (n = 3)) of the same molecule?
**A.** 1 (33.3)

**Q.** What about the “Stable disease, n (%)” value ([4]; 100 mg (n = 3)) of the same molecule?
**A.** 2 (66.7)

**Q.** What about the “Disease control, n (%)” value ([4]; 100 mg (n = 3)) of the same molecule?
**A.** 2 (66.7)

**Q.** And the “Objective response, n (%)” value ([4]; 100 mg (n = 3))?
**A.** 0 (0)

**Q.** What about the “Complete response, n (%)” value ([4]; 150 mg (n = 3)) of the same molecule?
**A.** 0 (0)

**Q.** And the “Partial response, n (%)” value ([4]; 150 mg (n = 3))?
**A.** 0 (0)

**Q.** What about the “Progressive disease, n (%)” value ([4]; 150 mg (n = 3)) of the same molecule?
**A.** 1 (33.3)

**Q.** What about the “Stable disease, n (%)” value ([4]; 150 mg (n = 3)) of the same molecule?
**A.** 2 (66.7)

**Q.** What about the “Disease control, n (%)” value ([4]; 150 mg (n = 3)) of the same molecule?
**A.** 2 (66.7)

**Q.** And the “Objective response, n (%)” value ([4]; 150 mg (n = 3))?
**A.** 0 (0)

**Q.** What about the “Complete response, n (%)” value ([4]; 220 mg (n = 3)) of the same molecule?
**A.** 0 (0)

**Q.** And the “Partial response, n (%)” value ([4]; 220 mg (n = 3))?
**A.** 1 (33.3)

**Q.** And the “Progressive disease, n (%)” value ([4]; 220 mg (n = 3))?
**A.** 0 (0)

**Q.** And the “Stable disease, n (%)” value ([4]; 220 mg (n = 3))?
**A.** 2 (66.7)

**Q.** What about the “Disease control, n (%)” value ([4]; 220 mg (n = 3)) of the same molecule?
**A.** 3 (100)

**Q.** And the “Objective response, n (%)” value ([4]; 220 mg (n = 3))?
**A.** 1 (33.3)

**Q.** And the “Complete response, n (%)” value ([4]; 300 mg (n = 6))?
**A.** 0 (0)

**Q.** What about the “Partial response, n (%)” value ([4]; 300 mg (n = 6)) of the same molecule?
**A.** 0 (0)

**Q.** What about the “Progressive disease, n (%)” value ([4]; 300 mg (n = 6)) of the same molecule?
**A.** 4 (66.7)

**Q.** What about the “Stable disease, n (%)” value ([4]; 300 mg (n = 6)) of the same molecule?
**A.** 2 (33.3)

**Q.** And the “Disease control, n (%)” value ([4]; 300 mg (n = 6))?
**A.** 2 (33.3)

**Q.** What about the “Objective response, n (%)” value ([4]; 300 mg (n = 6)) of the same molecule?
**A.** 0 (0)

**Q.** What about the “Complete response, n (%)” value ([4]; 350 mg (n = 3)) of the same molecule?
**A.** 0 (0)

**Q.** And the “Partial response, n (%)” value ([4]; 350 mg (n = 3))?
**A.** 1 (33.3)

**Q.** And the “Progressive disease, n (%)” value ([4]; 350 mg (n = 3))?
**A.** 0 (0)

**Q.** And the “Stable disease, n (%)” value ([4]; 350 mg (n = 3))?
**A.** 2 (66.7)

**Q.** What about the “Disease control, n (%)” value ([4]; 350 mg (n = 3)) of the same molecule?
**A.** 3 (100)

**Q.** And the “Objective response, n (%)” value ([4]; 350 mg (n = 3))?
**A.** 1 (33.3)

**Q.** What about the “Complete response, n (%)” value ([4]; 400 mg (n = 3)) of the same molecule?
**A.** 0 (0)

**Q.** What about the “Partial response, n (%)” value ([4]; 400 mg (n = 3)) of the same molecule?
**A.** 0 (0)

**Q.** And the “Progressive disease, n (%)” value ([4]; 400 mg (n = 3))?
**A.** 0 (0)

**Q.** And the “Stable disease, n (%)” value ([4]; 400 mg (n = 3))?
**A.** 3 (100)

**Q.** And the “Disease control, n (%)” value ([4]; 400 mg (n = 3))?
**A.** 3 (100)

**Q.** And the “Objective response, n (%)” value ([4]; 400 mg (n = 3))?
**A.** 0 (0)

**Q.** And the “duration of maintained PR” value ([4]; NSCLC patient, 350-mg group, no EGFR-sensitive mutations)?
**A.** 19 cycles

**Q.** What about the “Complete response, n (%)” value ([4]; Total (n = 24)) of the same molecule?
**A.** 0 (0)

**Q.** And the “Partial response, n (%)” value ([4]; Total (n = 24))?
**A.** 2 (8.3)

**Q.** What about the “Progressive disease, n (%)” value ([4]; Total (n = 24)) of the same molecule?
**A.** 7 (29.2)

**Q.** And the “Stable disease, n (%)” value ([4]; Total (n = 24))?
**A.** 15 (62.5)

**Q.** What about the “Disease control, n (%)” value ([4]; Total (n = 24)) of the same molecule?
**A.** 17 (70.8)

**Q.** What about the “Objective response, n (%)” value ([4]; Total (n = 24)) of the same molecule?
**A.** 2 (8.3)

**Q.** What about the “cases of PR among five patients with EGFR mutations at baseline” value ([4]; after cycle one) of the same molecule?
**A.** 1

**Q.** And the “cases of SD among five patients with EGFR mutations at baseline” value ([4]; after cycle one)?
**A.** 4

**Q.** And the “stable disease as best overall response, patients” value ([4]; all dose levels)?
**A.** 15

**Q.** And the “overall disease control rate (DCR)” value ([4]; all dose levels, 24 evaluable)?
**A.** 70.8%

**Q.** What about the tumor-inhibiting rate [5] of the same molecule?
**A.** exceeding 60%

**Q.** And the inhibition [6]?
**A.** potently inhibited

**Q.** And the P-glycoprotein substrate [7]?
**A.** substrate of P-glycoprotein

**Q.** And the IC50 [8]?
**A.** 0.000423 µM

**Q.** And the IC50 [9]?
**A.** 0.0266 µM

**Q.** What about the IC50 [10] of the same molecule?
**A.** 0.000563 µM

**Q.** What about the dose excreted ([11]; feces, 150-mg group, read-out: 0–120 h excretion recovery percentage in feces) of the same molecule?
**A.** 6.01%

**Q.** What about the dose excreted ([11]; feces, 220-mg group, read-out: 0–120 h excretion recovery percentage in feces) of the same molecule?
**A.** 7.89%

**Q.** And the dose excreted ([11]; 150-mg group, urine plus feces, read-out: 0–120 h excretion recovery percentage, total)?
**A.** 7.41%

**Q.** And the dose excreted ([11]; 220-mg group, urine plus feces, read-out: 0–120 h excretion recovery percentage, total)?
**A.** 9.25%

**Q.** What about the dose excreted ([11]; urine, 150-mg group, read-out: 0–120 h excretion recovery percentage in urine) of the same molecule?
**A.** 1.4%

**Q.** And the dose excreted ([11]; urine, 220-mg group, read-out: 0–120 h excretion recovery percentage in urine)?
**A.** 1.36%

**Q.** And the IC50 [12]?
**A.** 0.084 µM

**Q.** What about the “fold greater inhibitory activity than gefitinib” value ([13]; ref Baselga and Averbuch, 2000) of the same molecule?
**A.** 37 fold

**Q.** What about the “fold greater inhibitory activity than erlotinib” value ([13]; ref Moyer et al., 1997) of the same molecule?
**A.** 3 fold

**Q.** And the IC50 [14]?
**A.** 0.102 µM
